Eight compounds from PubChem BioAssay (NCI) can be followed below.

Among the test systems are SK-MEL-28 melanoma; NCI/ADR-RES ovarian; NCI-H226 lung; HL-60(TB) leukemia; M14 melanoma; OVCAR-4 ovarian; OVCAR-3 ovarian; SF-539 CNS; HOP-92 NSCLC; 786-0 renal.
What all share (assay): NCI-60 cell line screen, 48 h

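A five-concentration, 48-hour dose response in 96-well plates underlies each endpoint, interpolated linearly between surrounding concentrations. GI50: concentration for 50% inhibition of growth. TGI denotes the concentration required for complete inhibition of growth.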 Bounds are passed on as bounds.

For `COC(=O)c1cc2c(cc1Cl)SC(N(N(C)C)S(=O)(=O)c1ccc(Cl)cc1)=NS2(=O)=O`, the GI50 is 15.9 µM in the experiment on SK-MEL-28 melanoma; 15.2 µM in the experiment on NCI/ADR-RES ovarian; 19.8 µM in the experiment with NCI-H226 lung; 16.4 µM in the experiment on HL-60(TB) leukemia; 15.8 µM with M14 melanoma; 18.1 µM with OVCAR-4 ovarian. Further, the GI50 was 13 µM in the experiment on OVCAR-3 ovarian, 15.8 µM in the experiment with SF-539 CNS, 14.5 µM in the experiment on HOP-92 NSCLC and 31.3 µM in the experiment with 786-0 renal. In addition, the TGI was 29.3 µM in the experiment with SK-MEL-28 melanoma; 39.9 µM in the experiment on NCI/ADR-RES ovarian; 62 µM in the experiment with NCI-H226 lung; 42.6 µM in the experiment on HL-60(TB) leukemia; 32 µM in the experiment with M14 melanoma; 54.8 µM in the experiment on OVCAR-4 ovarian. The TGI was 37.8 µM with OVCAR-3 ovarian, 31.5 µM in the experiment on SF-539 CNS, 30.9 µM in the experiment on HOP-92 NSCLC and greater than 100 µM in the experiment on 786-0 renal.

Turning to `CCOC(=O)c1cnc2c(cnn2CC)c1NN=C(C)C`, the GI50 in the experiment on SK-MEL-28 melanoma was greater than 100 µM; in the experiment with NCI/ADR-RES ovarian it was 38 µM; in the experiment with NCI-H226 lung, 57.4 µM; in the experiment with HL-60(TB) leukemia, 59 µM; in the experiment on M14 melanoma, greater than 100 µM; in the experiment with OVCAR-4 ovarian, 94.6 µM. Besides, the GI50 with OVCAR-3 ovarian is 39.5 µM; in the experiment with SF-539 CNS, 74.9 µM; with HOP-92 NSCLC, 25.3 µM; with 786-0 renal, 29.6 µM. The TGI with SK-MEL-28 melanoma, in the experiment on NCI/ADR-RES ovarian, in the experiment with NCI-H226 lung, in the experiment with HL-60(TB) leukemia, with M14 melanoma and in the experiment with OVCAR-4 ovarian was greater than 100 µM throughout. For the same compound, the TGI in the experiment on OVCAR-3 ovarian, with SF-539 CNS, in the experiment on HOP-92 NSCLC and in the experiment on 786-0 renal was greater than 100 µM each time.

With `C=C1C(=O)O[C@H]2[C@H]1CC(=O)/C(C)=C\CC[C@@]1(C)O[C@@H]21`, the GI50 is 1.51 µg/mL in the experiment with SK-MEL-28 melanoma; 1.1 µg/mL in the experiment with NCI/ADR-RES ovarian; 4.71 µg/mL with NCI-H226 lung; 0.264 µg/mL in the experiment with HL-60(TB) leukemia; 3.38 µg/mL with M14 melanoma; 3.75 µg/mL with OVCAR-4 ovarian. Also, the GI50 was 0.795 µg/mL in the experiment with OVCAR-3 ovarian, 2.64 µg/mL with SF-539 CNS, 1.94 µg/mL in the experiment on HOP-92 NSCLC and 1.06 µg/mL in the experiment with 786-0 renal. Moreover, the TGI in the experiment on SK-MEL-28 melanoma was determined as 6.11 µg/mL; with NCI/ADR-RES ovarian it was 4.45 µg/mL; in the experiment on NCI-H226 lung it was 9.45 µg/mL; in the experiment with HL-60(TB) leukemia it was 4.19 µg/mL; in the experiment with M14 melanoma, 11.8 µg/mL; in the experiment on OVCAR-4 ovarian, 8.12 µg/mL. Further, the TGI worked out at 3.71 µg/mL in the experiment with OVCAR-3 ovarian, 7.16 µg/mL in the experiment on SF-539 CNS, 4.32 µg/mL in the experiment with HOP-92 NSCLC and 4.51 µg/mL in the experiment with 786-0 renal.

On to `C#CC#CC#CC#CC#CC#CC#CC#CCC1OC[C@H](COC(=O)O[C@@H](C(=O)O[C@H]2C[C@@]3(O)[C@@H](OC(=O)c4ccccc4)[C@@H]4[C@]5(OC(C)=O)CO[C@@H]5C[C@H](O)[C@@]4(C)C(=O)[C@H](OC(C)=O)C(=C2C)C3(C)C)[C@@H](NC(=O)c2ccccc2)c2ccccc2)O1` (some centres not stated), for which the GI50 in the experiment with NCI/ADR-RES ovarian is greater than 33.3 µM; with NCI-H226 lung, greater than 33.3 µM; with HL-60(TB) leukemia it was 0.172 µM; with M14 melanoma, 0.386 µM; with OVCAR-4 ovarian it was greater than 33.3 µM; in the experiment on OVCAR-3 ovarian, 0.17 µM. For the same compound, the GI50 in the experiment on SF-539 CNS is 0.298 µM; in the experiment with HOP-92 NSCLC, greater than 18.5 µM; in the experiment with 786-0 renal, 8.21 µM. Besides, the TGI was greater than 33.3 µM with NCI/ADR-RES ovarian; greater than 33.3 µM with NCI-H226 lung; greater than 10.9 µM in the experiment with HL-60(TB) leukemia; 3.59 µM with M14 melanoma; greater than 33.3 µM in the experiment on OVCAR-4 ovarian; greater than 33.3 µM in the experiment with OVCAR-3 ovarian. The TGI in the experiment with SF-539 CNS was 4.68 µM; in the experiment with HOP-92 NSCLC, greater than 33.3 µM; in the experiment on 786-0 renal, greater than 33.3 µM.

As to `Nc1c(O)c(S(=O)(=O)O)c(O)c2c1C(=O)c1ccccc1C2=O`, the GI50 with SK-MEL-28 melanoma is 4.09 µM; in the experiment with NCI/ADR-RES ovarian, 2.99 µM; in the experiment with NCI-H226 lung it was 4.12 µM; in the experiment with HL-60(TB) leukemia, 1.56 µM; in the experiment with M14 melanoma, 3.95 µM; in the experiment on OVCAR-4 ovarian it was 3.06 µM. Moreover, the GI50 in the experiment with OVCAR-3 ovarian was 2.94 µM; in the experiment with SF-539 CNS, 6.36 µM; with HOP-92 NSCLC it was 1.5 µM; with 786-0 renal, 4.73 µM. The TGI is greater than 100 µM in the experiment with SK-MEL-28 melanoma; 13.9 µM in the experiment on NCI/ADR-RES ovarian; greater than 100 µM in the experiment with NCI-H226 lung; 3.65 µM in the experiment on HL-60(TB) leukemia; greater than 100 µM in the experiment with M14 melanoma; 20.8 µM in the experiment with OVCAR-4 ovarian. Also, the TGI amounted to 14.5 µM in the experiment on OVCAR-3 ovarian, 30.6 µM with SF-539 CNS, 4.65 µM in the experiment with HOP-92 NSCLC and 41.3 µM in the experiment on 786-0 renal.

For the compound `O=C1C=C(Nc2nc(C(=O)O)cc(=O)[nH]2)c2ccccc2C1=O`, the TGI in the experiment on SK-MEL-28 melanoma, in the experiment with NCI/ADR-RES ovarian, with NCI-H226 lung, in the experiment with HL-60(TB) leukemia, with M14 melanoma and with OVCAR-4 ovarian was greater than 100 µM throughout. The TGI with OVCAR-3 ovarian, in the experiment on SF-539 CNS, in the experiment on HOP-92 NSCLC and in the experiment with 786-0 renal was greater than 100 µM each time.

With `CC12CCC(O)CC1CCC1C2CCC2(C)C(C3=CC(=O)OC3)CCC12` (configuration not stated), the GI50 with SK-MEL-28 melanoma is 28.2 µM; in the experiment with NCI/ADR-RES ovarian, 27 µM; in the experiment on NCI-H226 lung it was greater than 33.6 µM; in the experiment with HL-60(TB) leukemia it was greater than 100 µM; in the experiment on M14 melanoma, greater than 100 µM; with OVCAR-3 ovarian it was greater than 86.6 µM. For the same compound, the GI50 in the experiment on SF-539 CNS was 21.9 µM; with HOP-92 NSCLC, 5.02 µM; in the experiment with 786-0 renal it was 22 µM. The TGI is greater than 100 µM in the experiment on SK-MEL-28 melanoma; greater than 100 µM with NCI/ADR-RES ovarian; greater than 100 µM with NCI-H226 lung; greater than 100 µM with HL-60(TB) leukemia; greater than 100 µM in the experiment with M14 melanoma; greater than 73.2 µM in the experiment with OVCAR-4 ovarian. The TGI is greater than 100 µM in the experiment with OVCAR-3 ovarian, greater than 100 µM with SF-539 CNS, 29.5 µM with HOP-92 NSCLC and 65.2 µM in the experiment with 786-0 renal.

Regarding `c1ccc2c(c1)ccc1c3ccccc3ccc21`, the GI50 in the experiment on SK-MEL-28 melanoma, with NCI/ADR-RES ovarian, in the experiment with NCI-H226 lung, with HL-60(TB) leukemia, in the experiment on M14 melanoma and with OVCAR-4 ovarian was greater than 50 µM throughout. The GI50 in the experiment on OVCAR-3 ovarian, in the experiment on SF-539 CNS, with HOP-92 NSCLC and in the experiment with 786-0 renal was greater than 50 µM throughout. Also, the TGI with SK-MEL-28 melanoma, in the experiment on NCI/ADR-RES ovarian, in the experiment with NCI-H226 lung, in the experiment on HL-60(TB) leukemia, in the experiment on M14 melanoma and with OVCAR-4 ovarian was greater than 50 µM in each case. Also, the TGI with OVCAR-3 ovarian, in the experiment on SF-539 CNS, in the experiment with HOP-92 NSCLC and with 786-0 renal was greater than 50 µM throughout.
